From patent US6541638B2, “Pyrrolidine derivatives” (Hoffman-La Roche Inc., priority 2000, dated 2003)

SMILES: O=C([C@@H]1C[C@@H](S)CN1S(=O)(=O)c1ccc2ccccc2c1)N(CCc1nnn[nH]1)C1CC1
- melting point: 173.5 °C (dec.)
